{"source": "patent EP0318860B1", "about": "“Substituted alkylamine derivatives” (BANYU PHARMACEUTICAL CO., LTD., priority 1987, dated 1989)", "note": "Structures can show the parent of a compound that is named as a salt.", "data": [{"target": "T1, rat squalene epoxidase (Rattus norvegicus, UniProt P52020)", "T1 construct": "Livers were extracted and homogenized; from tissue; host or cells: liver of SD-strain female rats; microsomes solubilized with 2 % Triton X-100, 105000 x g supernatant", "T1 sequence (P52020 whole entry)": "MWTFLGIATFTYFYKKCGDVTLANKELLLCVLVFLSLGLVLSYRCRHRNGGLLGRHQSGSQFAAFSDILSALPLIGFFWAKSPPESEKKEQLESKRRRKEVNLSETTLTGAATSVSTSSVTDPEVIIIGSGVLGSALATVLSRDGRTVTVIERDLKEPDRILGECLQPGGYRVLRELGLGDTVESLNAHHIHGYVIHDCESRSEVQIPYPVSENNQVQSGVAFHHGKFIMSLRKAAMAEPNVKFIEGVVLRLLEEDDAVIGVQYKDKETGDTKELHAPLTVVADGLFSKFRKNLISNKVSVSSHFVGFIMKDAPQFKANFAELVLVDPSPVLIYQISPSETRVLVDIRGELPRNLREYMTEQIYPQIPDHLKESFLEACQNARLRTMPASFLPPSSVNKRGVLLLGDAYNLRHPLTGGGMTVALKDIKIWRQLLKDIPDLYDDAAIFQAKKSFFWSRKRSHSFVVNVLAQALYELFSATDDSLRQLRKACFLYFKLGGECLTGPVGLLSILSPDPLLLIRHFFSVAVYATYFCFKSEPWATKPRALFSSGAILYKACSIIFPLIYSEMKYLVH", "assay": "Squalene epoxidase inhibiting activity (3H-squalene to squalene-2,3-epoxide, solubilized liver microsome fraction)", "format": "biochemical", "details": "8 µM 3H-squalene, 37 °C, 30 minutes, read-out: 50 % inhibitory concentration (IC50)", "protocol": "The rat squalene epoxidase was prepared by the method described in J. Biol. Chem., vol.\nSD-strain female rats were killed by exsanguination. Livers were extracted and homogenized with in the presence of 2 volumes of 0.1M Tris-HCl buffer (pH 7.5). The homogenate was centrifuged at 9750 Xg for 10 minutes. The supernatant fraction was further centrifuged at 105000 Xg for 1 hour. The sediment was washed with 0.1M Tris-HCl buffer (pH 7.5), and then centrifuged at 105000 Xg for 1 hour. The microsomes obtained were suspended in 0.1M Tris-HCl buffer (pH 7.5) so that the amount of proteins was 40 mg/ml, and under ice cooling, the suspension was stirred in the presence of 2 % Triton X-100 to solubilize the enzyme. After the solubilization, the solution was diluted to a Triton X-100 concentration of 0.5 % with 1 mM EDTA and 1 mM dithiothreitol, and centrifuged at 105000 Xg for 1 hour. The resulting supernatant fraction was used in the following test as a squalene epoxidase fraction.\nThe squalene epoxidase activity was assayed in accordance with the method described in J. Biol. Chem., vol.\nThree microliters of a dimethyl sulfoxide solution of a test drug was added to a solution composed of 0.2 ml of the squalene epoxidase fraction prepared in (1) [proteins 0.4 mg, 0.5 % Triton X-100, […] Tris-HCl buffer (pH 7.5)], 100 µM FAD, 1 mM NADPH, 1 mM EDTA and 8 µM ³H-squalene-Tween 80 emulsion to adjust the total amount of the solution to 0.3 ml. The solution was incubated at 37 °C for 30 minutes with shaking. Then, 0.3 ml of a 10 % methanolic potassium hydroxide was added to stop the reaction, and the reaction mixture was left to stand at room temperature for 1 hour. The non-saponified material was extracted with petroleum ether, and the solvent was evaporated under a nitrogen stream. […] The position of the resulting ³H-squalene-2,3-epoxide on TLC was determined using ergosterol acetate as a marker, and the ³H-squalene-2,3-epoxide portion on the TLC was cut off. The TLC strip was immersed in a toluene-type scintillator, and measured by a liquid scintillation counter.", "units": {"IC50": "µM"}, "values": [{"smiles": "Cc1ccccc1COc1cccc(CN(C)C/C=C/C#CC2(C)CC2)c1", "note": "[Compound 131, (E)-N-methyl-N-[5-(1-methylcyclopropyl)-2-penten-4-ynyl]-3-(2-methylbenzyloxy)benzylamine]", "IC50": 1}, {"smiles": "CN(C/C=C/C#CC(C)(C)C)Cc1cccc(OCc2cccc(-n3cccc3)c2)c1", "note": "[Compound 81, (E)-N-(6,6-dimethyl-2-hepten-4-ynyl)-N-methyl-3-[3-(1-pyrrolyl)benzyloxy]benzylamine]", "IC50": 0.014}, {"smiles": "CC(Oc1cccc(CN(C)C/C=C/C#CC(C)(C)C)c1)c1ccccc1", "note": "(stereo not drawn) [Compound 16, (E)-N-(6,6-dimethyl-2-hepten-4-ynyl)-N-methyl-3-(alpha-phenethyloxy)benzylamine]", "IC50": 1.4}, {"smiles": "CN(C/C=C/C#CC(C)(C)C)Cc1csc(/C=C/c2ccccc2)n1", "note": "[Compound 117, N-[(E)-6,6-dimethyl-2-hepten-4-ynyl]-N-methyl-2-[(E)-styryl]-4-thiazolylmethylamine]", "IC50": 0.52}, {"smiles": "CC(C)(C)C#C/C=C/CN(Cc1cccc(OCc2ccccc2)c1)C1CC1", "note": "[Compound 43, (E)-N-cyclopropyl-N-(6,6-dimethyl-2-hepten-4-ynyl)-3-benzyloxybenzylamine]", "IC50": 3.9}, {"smiles": "CN(C/C=C/C#CC(C)(C)C)Cc1cccc(OCc2ccc(F)cc2)c1", "note": "[Compound 10, (E)-N-(6,6-dimethyl-2-hepten-4-ynyl)-N-methyl-3-(4-fluorobenzyloxy)benzylamine]", "IC50": 4.7}, {"smiles": "CN(C/C=C/C#CC(C)(C)C)Cc1cccc(OC/C=C/c2ccccc2)c1", "note": "[Compound 63, N-[(E)-6,6-dimethyl-2-hepten-4-ynyl]-N-methyl-3-[(E)-3-phenyl-2-propenyloxy]benzylamine hydrochloride]", "IC50": 5.4}, {"smiles": "CN(C/C=C/C#CC(C)(C)C)Cc1cccc(OCc2cccc(-c3ccco3)c2)c1", "note": "[Compound 75, (E)-N-(6,6-dimethyl-2-hepten-4-ynyl)-N-methyl-3-[3-(2-furyl)benzyloxy]benzylamine hydrochloride]", "IC50": 0.14}, {"smiles": "CCN(C/C=C/C#CC(C)(C)C)Cc1cccc(OCc2cccc(-c3cncs3)c2)c1", "note": "[Compound 121, (E)-N-(6,6-dimethyl-2-hepten-4-ynyl)-N-ethyl-3-[3-(5-thiazolyl)benzyloxy]benzylamine]", "IC50": 0.026}, {"smiles": "CN(C/C=C/C#CC(C)(C)C)Cc1cccc(OCc2cccc3cccnc23)c1", "note": "[Compound 87, (E)-N-(6,6-dimethyl-2-hepten-4-ynyl)-N-methyl-3-(8-quinolylmethyloxy)benzylamine hydrochloride]", "IC50": 3.5}, {"smiles": "Cc1ccc(CN(C)C/C=C/C#CC(C)(C)C)cc1OCc1ccccc1", "note": "[Compound 28, (E)-(6,6-dimethyl-2-hepten-4-ynyl)-N-methyl-3-benzyloxy-4-methylbenzylamine]", "IC50": 5.6}, {"smiles": "C=CCN(C/C=C/C#CC(C)(C)C)Cc1cccc(OCc2ccccc2)c1", "note": "[Compound 41, (E)-N-allyl-N-(6,6-dimethyl-2-hepten-4-ynyl)-3-benzyloxybenzylamine]", "IC50": 2.1}, {"smiles": "CN(C/C=C/C#CC(C)(C)C)Cc1cccc(OCc2ccccc2C(F)(F)F)c1", "note": "[Compound 68, (E)-N-(6,6-dimethyl-2-hepten-4-ynyl)-N-methyl-3-(2-trifluoromethylbenzyloxy)benzylamine hydrochloride]", "IC50": 1.2}, {"smiles": "CN(C/C=C/C#CC(C)(C)C)Cc1cccc(OCc2cccc(CO)c2)c1", "note": "[Compound 96, (E)-N-(6,6-dimethyl-2-hepten-4-ynyl)-N-methyl-3-(3-hydroxymethylbenzyloxy)benzylamine]", "IC50": 0.84}, {"smiles": "CC(C)=C(C)COc1cccc(CN(C)C/C=C/C#CC(C)(C)C)c1", "note": "[Compound 92, (E)-N-(6,6-dimethyl-2-hepten-4-ynyl)-N-methyl-3-(2,3-dimethyl-2-butenyloxy)benzylamine]", "IC50": 3.3}, {"smiles": "COc1ccc(COc2cccc(CN(C)C/C=C/C#CC(C)(C)C)c2)cc1", "note": "[Compound 12, (E)-N-(6,6-dimethyl-2-hepten-4-ynyl)-N-methyl-3-(4-methoxybenzyloxy)benzylamine]", "IC50": 6}, {"smiles": "CN(C/C=C/C#CC(C)(C)C)Cc1cccc(OCc2cccs2)c1", "note": "[Compound 86, (E)-N-(6,6-dimethyl-2-hepten-4-ynyl)-N-methyl-3-(2-thienylmethyloxy)benzylamine]", "IC50": 3.3}, {"smiles": "CN(C/C=C/C#CC(C)(C)C)Cc1cccc(OCc2cccc(O)c2)c1", "note": "[Compound 65, (E)-N-(6,6-dimethyl-2-hepten-4-ynyl)-N-methyl-3-(3-hydroxybenzyloxy)benzylamine]", "IC50": 4.6}, {"smiles": "CC(C)=Cc1cccc(COc2cccc(CN(C)C/C=C/C#CC(C)(C)C)c2)c1", "note": "[Compound 70, (E)-N-(6,6-dimethyl-2-hepten-4-ynyl)-N-methyl-3-[3-(2-methyl-1-propenyl)benzyloxy]benzylamine]", "IC50": 3.1}, {"smiles": "CN(C/C=C/C#CC(C)(C)C)Cc1ccc(/C=C/c2ccccc2)o1", "note": "[Compound 115, N-[(E)-6,6-dimethyl-2-hepten-4-ynyl]-N-methyl-5-[(E)-styryl]furfurylamine]", "IC50": 0.27}, {"smiles": "CN(C/C=C/C#CC(C)(C)C)Cc1cccc(OCc2cccc(-c3ccccc3)c2)c1", "note": "[Compound 74, (E)-N-(6,6-dimethyl-2-hepten-4-ynyl)-N-methyl-3-(3-phenylbenzyloxy)benzylamine hydrochloride]", "IC50": 0.57}, {"smiles": "CCN(C/C=C/C#CC(C)(C)C)Cc1cccc(OCc2cccc(-n3cccc3)c2)c1", "note": "[Compound 119, (E)-N-(6,6-dimethyl-2-hepten-4-ynyl)-N-ethyl-3-[3-(1-pyrrolyl)benzyloxy]benzylamine]", "IC50": 0.0071}, {"smiles": "CN(C/C=C/C#CC(C)(C)C)Cc1cccc(OCc2cccc(Cl)c2)c1", "note": "[Compound 8, (E)-N-(6,6-dimethyl-2-hepten-4-ynyl)-N-methyl-3-(3-chlorobenzyloxy)benzylamine]", "IC50": 2.9}, {"smiles": "CN(C/C=C/C#CC(C)(C)C)Cc1cccc(NCc2ccccc2)c1", "note": "[Compound 102, (E)-N-(6,6-dimethyl-2-hepten-4-ynyl)-N-methyl-3-benzylaminobenzylamine]", "IC50": 2.1}, {"smiles": "CCc1ccccc1COc1cccc(CN(C)C/C=C/C#CC(C)(C)C)c1", "note": "[Compound 62, (E)-N-(6,6-dimethyl-2-hepten-4-ynyl)-N-methyl-3-(2-ethylbenzyloxy)benzylamine hydrochloride]", "IC50": 0.36}, {"smiles": "CN(C/C=C\\C#CC(C)(C)C)Cc1cccc(OCc2cccc3ccccc23)c1", "note": "[Compound 19, (Z)-N-(6,6-dimethyl-2-hepten-4-ynyl)-N-methyl-3-(1-naphthylmethyloxy)benzylamine]", "IC50": 3.1}, {"smiles": "CCCN(C/C=C/C#CC(C)(C)C)Cc1cccc(OCc2cccc(-n3cccc3)c2)c1", "note": "[Compound 122, (E)-N-(6,6-dimethyl-2-hepten-4-ynyl)-N-propyl-3-[3-(1-pyrrolyl)benzyloxy]benzylamine]", "IC50": 0.013}, {"smiles": "CN(C/C=C/C#CC(C)(C)C)Cc1cccc(OCc2cccc(-c3nccs3)c2)c1", "note": "[Compound 77, (E)-N-(6,6-dimethyl-2-hepten-4-ynyl)-N-methyl-3-[3-(2-thiazolyl)benzyloxy]benzylamine]", "IC50": 1.2}, {"smiles": "CN(C/C=C/C#CC(C)(C)C)Cc1cccc(OCc2ccccc2F)c1", "note": "[Compound 66, (E)-N-(6,6-dimethyl-2-hepten-4-ynyl)-N-methyl-3-(2-fluorobenzyloxy)benzylamine hydrochloride]", "IC50": 1.2}, {"smiles": "CCCN(C/C=C/C#CC(C)(C)C)Cc1cccc(OCc2cccc(-c3cnco3)c2)c1", "note": "[Compound 123, (E)-N-(6,6-dimethyl-2-hepten-4-ynyl)-N-propyl-3-[3-(5-oxazolyl)benzyloxy]benzylamine]", "IC50": 0.034}]}]}
